Test results: BindingDB's records for doi:10.1016/j.bmcl.2006.04.076 (Merck Research Laboratories, 2006)

Biological target: Beta-secretase 1 (Homo sapiens, UniProt P56817)
Test: In Vitro BACE1 Activity Assay
Conditions: pH 4.5; 22 °C
Description: The assay was performed using a 96-well format on a HPLC equipped with four 96-well plate holders. Test compounds were preincubated with enzymes for 30 min, followed by the addition of substrate. The solution was then incubated for an additional 30 min at room temperature. After the reaction was terminated, the solution was filtered, and the filtrate was subjected to HPLC analysis. The substrate and product were monitored by fluorescence detection (340nm excitation, 440 nm emission).

Chain of Beta-secretase 1 (P56817 whole entry): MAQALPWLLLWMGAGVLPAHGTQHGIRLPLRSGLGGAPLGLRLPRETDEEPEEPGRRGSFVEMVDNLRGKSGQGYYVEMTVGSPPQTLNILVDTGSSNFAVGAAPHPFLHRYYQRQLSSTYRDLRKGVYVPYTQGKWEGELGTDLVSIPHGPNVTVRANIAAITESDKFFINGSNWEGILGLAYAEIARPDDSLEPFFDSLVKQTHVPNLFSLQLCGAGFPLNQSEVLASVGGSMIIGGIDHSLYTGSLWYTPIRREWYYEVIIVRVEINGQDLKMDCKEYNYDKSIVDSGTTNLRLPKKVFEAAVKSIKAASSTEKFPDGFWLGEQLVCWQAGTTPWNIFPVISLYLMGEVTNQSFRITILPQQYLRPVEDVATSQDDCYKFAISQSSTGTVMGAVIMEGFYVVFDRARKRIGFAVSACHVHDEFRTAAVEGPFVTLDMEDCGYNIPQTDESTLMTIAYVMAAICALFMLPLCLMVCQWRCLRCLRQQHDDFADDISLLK

| IC50 | Compound |
| --- | --- |
| 17.2 µM | C[C@H](NC[C@H](Cc1ccccc1)NC(=O)c1cc(C(=O)N[C@H](C)c2ccc(F)cc2)cc(N(C)S(C)(=O)=O)c1)C(=O)N1CCCC1C(=O)O (stereo partly drawn) [1-[(2S)-2-{[(2S)-2-[(3-{[(1R)-1-(4-fluorophenyl)ethyl]carbamoyl}-5-(N-methylmethanesulfonamido)phenyl)formamido]-3-phenylpropyl]amino}propanoyl]pyrrolidine-2-carboxylic acid] |
| 0.02 µM | CC(C)CNC(=O)[C@H](C)NC[C@H](Cc1ccccc1)NC(=O)c1cc(/C=C\[C@H]2C[C@@H]2C)cc(N(C)S(C)(=O)=O)c1 [N-[(1S)-1-benzyl-2-({(1S)-1-methyl-2-[(2-methylpropyl)amino]-2-oxoethyl}amino)ethyl]-3-{(Z)-2-[(1S,2S)-2-methylcyclopropyl]ethenyl}-5-[methyl(methylsulfonyl)amino]benzamide] |
